{"source": "patent EP3981864A1", "about": "“DETERGENT COMPOSITION” (priority 2020, dated 2022)", "key": {"[1]": {"system": "Streptomyces avermitilis αDOX (SEQ ID NO: 13), fatty acid alpha-dioxygenase, Q82M86, N-terminal His-tag variant SEQ ID NO: 273 (comparative)", "assay": "Alpha-dioxygenase activity assay (oxygen consumption, TON)", "type": "biochemical", "conditions": "fatty acid 100 µM, enzyme 6 ppm, 50 mM HEPES pH 9.0, 37°C; initial rate of oxygen consumption / enzyme concentration", "source_text": "(§1) Streptomyces avermitilis αDOX (SEQ ID NO: 13) is a fatty acid alpha-dioxygenase that converts fatty acids into the corresponding 2-hydroperoxy fatty acids and is included as a comparative example of the present invention. A codon optimized gene (SEQ ID NO: 272) encoding for an alpha-dioxygenase variant (SEQ ID NO: 273), including an N-terminal amino acid sequence containing a His-tag was designed and synthesized by Genscript. After gene synthesis, the protein was expressed and purified. In brief, the complete synthetic gene sequence was subcloned into a pET30a vector using the NdeI/HindIII cloning sites. For heterologous expression, Escherichia coli BL21 (DE3) cells were transformed with the recombinant plasmid and a single colony was inoculated into LB medium containing kanamycin (50 mg/L). A pre-starter culture was then inoculated into flasks containing Magic Media (Thermo Fisher, Catalog # K6803) supplemented with kanamycin (50 mg/L) and incubated at 16 °C for 72 h. At an OD600nm = 0.5 - 1.0, 5-aminolevulinic acid (final concentration 0.5 mM) was added. Cells were harvested by centrifugation at 5000 rpm and 4°C and the pellet was lysed using a bacterial cell lysis buffer (B-PER - Themo Fisher, Waltham, MA). After centrifugation, the supernatant was collected, and the protein was purified by one-step purification using HisPur™ Ni-NTA Spin Columns (Thermo Scientific, Catalog # 88226) and standard protocols known in the art. […]\n(§2) Reactions with alpha-dioxygenases were performed as follows. […] The reaction was incubated for up to 10 minutes at 37°C with 200 rpm agitation and the conversion was monitored using an oxygen sensor. The TON (in s-1) were calculated as the ratio between the initial rate of oxygen consumption (in µM/s) and the concentration of enzyme (in µM). […]"}, "[2]": {"system": "Mycolicibacterium fortuitum αDOX (SEQ ID NO: 14), fatty acid alpha-dioxygenase, K0VM18, N-terminal His-tag variant SEQ ID NO: 275 (comparative)", "assay": "Alpha-dioxygenase activity assay (oxygen consumption, TON)", "type": "biochemical", "conditions": "fatty acid 100 µM, enzyme 6 ppm, 50 mM HEPES pH 9.0, 37°C; initial rate of oxygen consumption / enzyme concentration", "source_text": "as §1, with “Mycolicibacterium fortuitum” for “Streptomyces avermitilis”, “14)” for “13)”, “274)” for “272)”, “275),” for “273),”\nas §2"}}, "data": [{"smiles": "CCCCCCCC/C=C\\CCCCCCCC(=O)O", "note": "[Oleic Acid]", "values": [{"measurement": "Oleic Acid, TON", "setting": "[1]", "result": 0.00, "unit": "s⁻¹"}, {"measurement": "Oleic Acid, TON", "setting": "[2]", "result": 0.00, "unit": "s⁻¹"}]}, {"smiles": "CCCCCCCCCCCCCCCC(=O)O", "note": "[Palmitic Acid]", "values": [{"measurement": "Palmitic Acid, TON", "setting": "[1]", "result": 0.00, "unit": "s⁻¹"}, {"measurement": "Palmitic Acid, TON", "setting": "[2]", "result": 0.21, "unit": "s⁻¹"}]}, {"smiles": "CCCCCCCCCCCCCCCCCC(=O)O", "note": "[Stearic Acid]", "values": [{"measurement": "Stearic Acid, TON", "setting": "[1]", "result": 0.10, "unit": "s⁻¹"}, {"measurement": "Stearic Acid, TON", "setting": "[2]", "result": 0.03, "unit": "s⁻¹"}]}]}
